Assay results: patent US10450326B2, “Thiazolopyrimidinone compounds and preparation methods and use thereof” (PEKING UNIVERSITY, priority 2015, dated 2019)
Entries after “also recorded” stand apart in the source; their conditions may differ.

What was measured:
[1] = target: T1, α7 nAChR (Homo sapiens, UniProt P36544); experiment: α7 nAChR positive allosteric modulator activity assay, voltage clamp in Xenopus oocytes with 100 μM ACh; type: cell-based; settings: for activity at 10 µM: at 10 μM compound, current induced by 100 μM ACh, Xenopus oocytes expressing α7 nAChR, read-out: Max Mod (%, at 10 μM)
T1 construct: expressed in transfected cells; host or cells: Xenopus oocytes (cRNA injection)
T1 sequence (P36544 23-502): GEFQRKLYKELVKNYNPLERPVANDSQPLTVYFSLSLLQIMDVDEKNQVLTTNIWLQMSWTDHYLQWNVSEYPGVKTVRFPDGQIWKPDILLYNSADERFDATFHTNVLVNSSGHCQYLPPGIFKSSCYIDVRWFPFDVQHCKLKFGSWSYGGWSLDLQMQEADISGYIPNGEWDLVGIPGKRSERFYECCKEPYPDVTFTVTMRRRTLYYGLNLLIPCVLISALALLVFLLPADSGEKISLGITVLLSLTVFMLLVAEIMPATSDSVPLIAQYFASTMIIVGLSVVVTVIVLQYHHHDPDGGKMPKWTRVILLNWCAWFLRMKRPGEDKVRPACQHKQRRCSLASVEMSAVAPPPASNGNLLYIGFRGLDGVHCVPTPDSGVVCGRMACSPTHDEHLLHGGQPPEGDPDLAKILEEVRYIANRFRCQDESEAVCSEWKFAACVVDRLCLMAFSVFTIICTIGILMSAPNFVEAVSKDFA
Description: The experimental process was as follows:
(1) Xenopus oocytes were injected with cRNA encoding α7 nAChR in order to express α7 nAChR on the cell membrane successfully;
(2) 100 μM ACh alone was added, and the α7 nAChR characteristic current caused by it was recorded as a control;
(5) The oocytes were incubated for 1 min with 10 μM compound, then 10 µM compound and 100 μM ACh were added simultaneously and the current induced by ACh was recorded at this time;
(6) The differences between the two currents in terms of peak intensity and duration were compared, with the ratio of peak intensity of the two currents representing the adjustment effect (Enhance Rate), in order to determine whether the compound had PAM activity, if the activity was good, then the subsequent test was carried out;
(7) Concentration gradient was set and the effects of compounds at different concentrations on the α7 nAChR characteristic current induced by 100 μM ACh were evaluated. Several determinations were carried out at the same concentration, and the results were presented in the form of “mean±standard deviation”;
(8) The EC50 (median maximum effect concentration) values and Max mod (the current amplitude caused by the maximal degree of adjustable endogenous agonist acetylcholine) values of the compounds and other activity data were obtained by Hill equation Inormalized=Emax/(1+(EC50/C)nH).
The amplitude of the peak current is only normalized by the amplitude produced by 100 μM ACh and different concentrations of LD486. […] It can be seen from FIG. 3 that the Hill equation is used to fit the dose-response curve and calculate the kinetic parameters.

[2] = target: T2, hERG (human ether-a-go-go related gene) channel (Homo sapiens, UniProt Q12809); experiment: Automatic patch clamp Qplate-16 assay, hERG channel expressed on CHO cell lines; type: cell-based; settings: CHO cells
T2 construct: expressed in transfected cells; host or cells: CHO (Chinese hamster ovary) cell lines
T2 sequence (Q12809 whole entry): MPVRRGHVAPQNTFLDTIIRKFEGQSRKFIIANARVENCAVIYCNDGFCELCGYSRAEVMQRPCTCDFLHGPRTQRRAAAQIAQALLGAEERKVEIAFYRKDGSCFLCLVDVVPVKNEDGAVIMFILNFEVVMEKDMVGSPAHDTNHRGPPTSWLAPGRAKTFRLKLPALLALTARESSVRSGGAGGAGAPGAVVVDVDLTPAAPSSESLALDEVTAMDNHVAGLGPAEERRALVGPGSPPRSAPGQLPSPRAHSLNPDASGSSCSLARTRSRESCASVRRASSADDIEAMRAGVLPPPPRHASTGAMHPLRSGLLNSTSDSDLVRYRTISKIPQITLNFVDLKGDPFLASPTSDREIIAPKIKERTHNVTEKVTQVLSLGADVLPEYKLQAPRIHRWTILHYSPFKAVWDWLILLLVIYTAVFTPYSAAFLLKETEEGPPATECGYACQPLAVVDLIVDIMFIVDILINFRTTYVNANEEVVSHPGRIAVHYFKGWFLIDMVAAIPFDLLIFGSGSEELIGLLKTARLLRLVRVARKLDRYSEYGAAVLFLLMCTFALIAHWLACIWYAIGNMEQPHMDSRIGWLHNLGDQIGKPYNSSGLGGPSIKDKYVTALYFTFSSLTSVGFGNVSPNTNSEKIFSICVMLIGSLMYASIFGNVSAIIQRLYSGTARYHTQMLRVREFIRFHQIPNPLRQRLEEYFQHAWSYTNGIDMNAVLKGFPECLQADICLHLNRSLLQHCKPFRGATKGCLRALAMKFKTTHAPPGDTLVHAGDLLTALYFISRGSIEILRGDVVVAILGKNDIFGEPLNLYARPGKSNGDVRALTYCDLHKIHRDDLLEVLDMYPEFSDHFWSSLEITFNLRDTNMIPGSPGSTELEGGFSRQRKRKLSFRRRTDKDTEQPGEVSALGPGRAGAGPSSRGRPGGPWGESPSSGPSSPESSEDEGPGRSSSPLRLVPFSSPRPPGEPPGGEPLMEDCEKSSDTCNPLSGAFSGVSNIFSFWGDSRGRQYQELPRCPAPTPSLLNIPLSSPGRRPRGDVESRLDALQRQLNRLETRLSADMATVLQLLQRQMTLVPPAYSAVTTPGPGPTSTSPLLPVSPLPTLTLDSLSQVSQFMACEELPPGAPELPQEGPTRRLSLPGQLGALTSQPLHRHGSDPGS
Description: In the absence of LD486 or cisapride or in the presence of LD486 or cisapride at different concentrations, drug-related hERG potassium channel inhibition can lead to ventricular delayed repolarization (long QT interval syndrome), which may lead to a current intensity of fatal arrhythmia such as torsades de pointes, and even sudden death.

[3] = target: T3, α3β4 receptors (Homo sapiens, UniProt P30926+P32297); experiment: Two-electrode voltage clamp in Xenopus oocytes, α3β4 receptor; type: cell-based; settings: 10 μM LD486, pre-stimulated 60 seconds, 10 μM ACh
T3 construct: expressed in transfected cells; host or cells: Xenopus oocytes
T3 sequence (P32297 32-505): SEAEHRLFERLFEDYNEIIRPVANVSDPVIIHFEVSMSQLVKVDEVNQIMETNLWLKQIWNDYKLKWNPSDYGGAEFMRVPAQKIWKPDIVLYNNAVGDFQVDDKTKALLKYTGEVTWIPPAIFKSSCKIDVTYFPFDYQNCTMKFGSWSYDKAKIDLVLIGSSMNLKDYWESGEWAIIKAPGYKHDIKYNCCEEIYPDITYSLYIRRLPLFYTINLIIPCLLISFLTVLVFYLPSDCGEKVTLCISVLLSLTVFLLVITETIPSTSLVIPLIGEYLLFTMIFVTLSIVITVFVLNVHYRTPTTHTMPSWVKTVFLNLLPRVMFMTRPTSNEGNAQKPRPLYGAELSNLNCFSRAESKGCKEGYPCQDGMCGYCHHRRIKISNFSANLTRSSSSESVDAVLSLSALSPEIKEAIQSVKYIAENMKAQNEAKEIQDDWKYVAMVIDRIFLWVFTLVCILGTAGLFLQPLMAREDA
T3 sequence (P30926 22-498): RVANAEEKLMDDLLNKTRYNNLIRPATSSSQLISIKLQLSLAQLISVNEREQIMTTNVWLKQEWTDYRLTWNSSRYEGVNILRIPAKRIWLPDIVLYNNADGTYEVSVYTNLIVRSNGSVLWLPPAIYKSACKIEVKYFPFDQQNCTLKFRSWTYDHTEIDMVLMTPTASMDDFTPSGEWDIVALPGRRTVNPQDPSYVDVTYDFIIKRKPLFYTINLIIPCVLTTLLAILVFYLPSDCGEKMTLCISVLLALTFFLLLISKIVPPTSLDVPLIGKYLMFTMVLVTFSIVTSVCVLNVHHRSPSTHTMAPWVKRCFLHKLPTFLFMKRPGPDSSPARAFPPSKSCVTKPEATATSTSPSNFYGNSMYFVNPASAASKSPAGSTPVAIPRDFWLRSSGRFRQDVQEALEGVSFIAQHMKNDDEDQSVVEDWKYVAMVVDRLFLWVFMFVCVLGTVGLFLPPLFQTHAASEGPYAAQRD
Description: (§1) FIGS. 4A and B show the response intensity curves of Xenopus oocytes stimulated by only […] Ach to α4β2 and α3β4 in the left panel, respectively.
(§2) FIGS. 4A and B show the response intensity curves of Xenopus oocytes stimulated by 10 μM ACh and […] LD486 to α4β2 and α3β4 in the right panel, respectively. Xenopus oocytes are pre-stimulated with 10 μM LD486 for 60 seconds.
(§3) Used as exogenous expression system, Xenopus oocytes are injected with different α subunits and β subunits at 1:1 ratio.

[4] = target: T4, α4β2 receptors (Homo sapiens, UniProt P17787+P43681); experiment: Two-electrode voltage clamp in Xenopus oocytes, α4β2 receptor; type: cell-based; settings: 10 μM LD486, pre-stimulated 60 seconds, 10 μM ACh
T4 construct: expressed in transfected cells; host or cells: Xenopus oocytes
T4 sequence (P43681 29-627 limits assumed): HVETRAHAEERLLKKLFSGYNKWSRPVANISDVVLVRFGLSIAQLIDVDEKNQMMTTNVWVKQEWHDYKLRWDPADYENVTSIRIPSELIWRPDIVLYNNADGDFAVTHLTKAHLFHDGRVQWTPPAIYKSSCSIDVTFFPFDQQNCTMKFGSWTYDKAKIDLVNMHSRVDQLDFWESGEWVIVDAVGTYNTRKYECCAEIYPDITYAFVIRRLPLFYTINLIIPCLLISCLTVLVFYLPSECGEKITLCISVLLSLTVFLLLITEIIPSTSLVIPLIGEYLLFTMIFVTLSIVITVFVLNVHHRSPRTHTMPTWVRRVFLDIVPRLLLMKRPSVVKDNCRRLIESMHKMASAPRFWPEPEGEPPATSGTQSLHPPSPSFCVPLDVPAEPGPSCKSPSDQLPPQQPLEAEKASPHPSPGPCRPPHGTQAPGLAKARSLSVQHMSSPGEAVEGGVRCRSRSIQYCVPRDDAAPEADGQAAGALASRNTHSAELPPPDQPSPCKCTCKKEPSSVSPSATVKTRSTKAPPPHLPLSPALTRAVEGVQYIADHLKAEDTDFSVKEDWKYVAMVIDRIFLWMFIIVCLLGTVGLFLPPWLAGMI
T4 sequence (P17787 26-502): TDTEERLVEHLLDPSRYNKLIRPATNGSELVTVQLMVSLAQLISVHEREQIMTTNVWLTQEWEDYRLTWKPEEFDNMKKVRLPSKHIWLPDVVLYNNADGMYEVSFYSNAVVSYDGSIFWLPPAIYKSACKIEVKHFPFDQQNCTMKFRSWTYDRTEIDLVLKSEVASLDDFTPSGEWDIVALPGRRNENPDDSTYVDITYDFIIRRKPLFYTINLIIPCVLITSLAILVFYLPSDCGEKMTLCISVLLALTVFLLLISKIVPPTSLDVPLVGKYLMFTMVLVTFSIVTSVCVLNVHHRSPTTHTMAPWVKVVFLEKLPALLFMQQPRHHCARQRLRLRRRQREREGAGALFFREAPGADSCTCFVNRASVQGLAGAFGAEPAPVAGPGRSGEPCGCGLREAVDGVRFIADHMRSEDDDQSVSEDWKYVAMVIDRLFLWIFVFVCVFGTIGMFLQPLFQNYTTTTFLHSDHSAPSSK
Description: as §1, §2, §3

[5] = target: T5, α7 nAChR (Rattus norvegicus, UniProt Q05941); experiment: Radioisotope ligand binding assay, displacement of [3H]-Methyllycaconitine bound to rat brain cell membrane
T5 construct: from tissue; host or cells: rat brain (hippocampus) cell membranes
T5 sequence (Q05941 23-502): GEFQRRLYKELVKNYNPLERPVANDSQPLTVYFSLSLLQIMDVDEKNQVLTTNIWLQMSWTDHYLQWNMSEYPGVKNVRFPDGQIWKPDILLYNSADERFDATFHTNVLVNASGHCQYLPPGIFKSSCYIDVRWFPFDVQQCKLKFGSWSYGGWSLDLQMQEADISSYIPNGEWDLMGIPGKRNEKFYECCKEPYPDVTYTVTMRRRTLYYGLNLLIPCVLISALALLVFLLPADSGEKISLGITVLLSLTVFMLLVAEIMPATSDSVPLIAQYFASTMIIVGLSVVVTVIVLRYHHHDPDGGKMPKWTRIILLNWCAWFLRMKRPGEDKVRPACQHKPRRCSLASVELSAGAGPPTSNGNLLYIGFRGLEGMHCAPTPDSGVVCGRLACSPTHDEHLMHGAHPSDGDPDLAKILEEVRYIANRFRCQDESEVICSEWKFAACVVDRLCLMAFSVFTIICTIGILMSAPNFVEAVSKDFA

[6] = potentiation of current induced by 100 μM ACh, Hill equation fit

| activity at 10 µM [1] [%] | EC50 [1, 6] [µM] | Compound | also measured |
| --- | --- | --- | --- |
| 110 |  | Cc1cc(C)c(-n2cnc3nc(Nc4ccccc4)sc3c2=O)c(C)c1 [LD252, 6-Mesityl-2-(phenylamino)thiazolo[4,5-d]pyrimidin-7(6H)-one] |  |
| 110 |  | Cc1cc(C)c(-n2cnc3nc(Nc4ccccn4)sc3c2=O)c(C)c1 [LD286, 6-Mesityl-2-(pyridin-2-ylamino)thiazolo[4,5-d]pyrimidin-7(6H)-one] |  |
| 110 |  | Cc1cc(C)c(-n2cnc3nc(Nc4ccncc4)sc3c2=O)c(C)c1 [LD293, 6-Mesityl-2-(pyridin-4-ylamino)thiazolo[4,5-d]pyrimidin-7(6H)-one] |  |
| 110 |  | CSc1nc2ncn(-c3c(Cl)cccc3Cl)c(=O)c2s1 [LD493, 6-(2,6-Dichlorophenyl)-2-(methylthio) thiazolo[4,5-d]pyrimidin-7(6H)-one] |  |
| 110 |  | CSc1nc2nnn(-c3c(Cl)cccc3Cl)c(=O)c2s1 [LD496, 3-(2,6-Dichlorophenyl)-6-(methylthio) thiazolo[4,5-d][1,2,3]triazin-4(3H)-one] |  |
| 620 | 4.18 | Cc1cccc(Cl)c1-n1cnc2nc(SCc3ccccc3F)sc2c1=O [LYH150309-2F, 6-(2-Chloro-6-methylphenyl)-2-((2-fluorobenzyl)thio)thiazolo[4,5-d]pyrimidin-7(6H)-one] |  |
| 500 | 10 | Cc1cccc(Cl)c1-n1cnc2nc(SCc3cccc(F)c3)sc2c1=O [LYH150310-3F, 6-(2-Chloro-6-methylphenyl)-2-((3-fluorobenzyl)thio)thiazolo[4,5-d]pyrimidin-7(6H)-one] |  |
| 670 | 2.87 | Cc1cccc(Cl)c1-n1cnc2nc(SCc3ccc(F)cc3)sc2c1=O [LYH150312-4F, 6-(2-Chloro-6-methylphenyl)-2-((4-fluorobenzyl)thio)thiazolo[4,5-d]pyrimidin-7(6H)-one] |  |
| 300 | 10 | Cc1ccc(CSc2nc3ncn(-c4c(C)cccc4Cl)c(=O)c3s2)cc1 [LYH150318-4Me, 6-(2-Chloro-6-methylphenyl)-2-((4-methylbenzyl)thio)thiazolo[4,5-d]pyrimidin-7(6H)-one] |  |
| 370 | 10 | Cc1ccccc1CSc1nc2ncn(-c3c(C)cccc3Cl)c(=O)c2s1 [LYH150325-2Me, 6-(2-Chloro-6-methylphenyl)-2-((2-methylbenzyl)thio)thiazolo[4,5-d]pyrimidin-7(6H)-one] |  |
| 300 | 10 | COc1ccc(CSc2nc3ncn(-c4c(C)cccc4Cl)c(=O)c3s2)cc1 [LYH150326-4OCH3, 6-(2-Chloro-6-methylphenyl)-2-((4-methoxybenzyl)thio)thiazolo[4,5-d]pyrimidin-7(6H)-one] |  |
| 140 | 10 | Cc1cccc(Cl)c1-n1cnc2nc(SCc3ccc(C(F)(F)F)cc3)sc2c1=O [LYH150409-4CF3, 6-(2-Chloro-6-methylphenyl)-2-((4-(trifluoromethyl)benzyl)thio)thiazolo[4,5-d]pyrimidin-7(6H)-one] |  |
| 200 | 10 | Cc1cccc(Cl)c1-n1cnc2nc(Sc3ccc(F)cc3)sc2c1=O [LYH150908, 6-(2-Chloro-6-methylphenyl)-2-((4-fluorophenyl)thio)thiazolo[4,5-d]pyrimidin-7(6H)-one] |  |
| 110 |  | COc1ccc(Sc2nc3ncn(-c4c(C)cccc4Cl)c(=O)c3s2)cc1 [LYH150909, 6-(2-Chloro-6-methylphenyl)-2-((4-methoxyphenyl)thio)thiazolo[4,5-d]pyrimidin-7(6H)-one] |  |
| 380 | 10 | Cc1cccc(Cl)c1-n1cnc2nc(Sc3ccccc3)sc2c1=O [LYH151120, 6-(2-Chloro-6-methylphenyl)-2-(phenylthio)thiazolo[4,5-d]pyrimidin-7(6H)-one] |  |
|  | 10 | Cc1cccc(Cl)c1-n1cnc2nc(Sc3cccc(F)c3)sc2c1=O [LYH151215, 6-(2-Chloro-6-methylphenyl)-2-((3-fluorophenyl)thio)thiazolo[4,5-d]pyrimidin-7(6H)-one] |  |
|  |  | O=C(N[C@H]1CN2CCC1CC2)c1ccc(Cl)cc1 [PNU-282987, reference compound] | Ki ([5]; displacement of [3H]-MLA, rat brain cell membrane, FIG. 1): 0.0341 ± 0.0043 µM |

| Compound | activity at 10 µM [1] [%] | EC50 [1, 6] [µM] | also measured |
| --- | --- | --- | --- |
| Cc1nc(Cl)cc(Nc2nc3ncn(-c4c(C)cccc4Cl)c(=O)c3s2)n1 [LD486, 2-((6-Chloro-2-methylpyrimidin-4-yl)amino)-6-(2-chloro-6-methylphenyl)thiazolo[4,5-d]pyrimidin-7(6H)-one] | 320 |  | inhibitory effect on the hERG channel [2]: no inhibitory effect; also recorded: slight inhibitory effect; effect on current of α3β4 receptors [3]: did not increase; also recorded: no significant effect; maximal degree of adjustable endogenous agonist ACh current amplitude ([1]; FIG. 3, Hill equation fit): about 3.2 times; Hill coefficient ([1]; FIG. 3, n=6): 1.4±0.2; Emax ([1]; FIG. 3, normalized to 100 μM ACh, repeated 6 times): 320%; EC50 ([1]; FIG. 3 concentration response curve, 100 μM ACh, n=6): 3.2 ± 0.3 µM; induction of α7 nAChR characteristic current by compound alone ([1]; LD486 0.1-10 μM alone, without ACh, FIG. 2): does not induce; current amplitude induced by 100 μM ACh compared with the control group ([1]; incubation 1 min, then same concentration of LD486 plus 100 μM ACh, FIG. 2): significantly increased; Ki ([1]; summary statement, read-out: Ki value as an α7nAChR PAM): ~3 µM; effect on current of α4β2 receptors [4]: did not increase; also recorded: no significant effect; effect on binding of [3H]-MLA to α7 nAChR ([5]; concentration increased to 10 μM, hippocampus of rats): does not affect; also recorded: not reduced |
| Cc1cccc(CSc2nc3ncn(-c4c(C)cccc4Cl)c(=O)c3s2)c1 [LYH150324-3Me, 6-(2-Chloro-6-methylphenyl)-2-((3-methylbenzyl)thio)thiazolo[4,5-d]pyrimidin-7(6H)-one] | 230 | 10 |  |
